Laboratory results published in the NIST ThermoML archive (doi:10.1021/acs.jced.6b00640).
± gives the expanded uncertainty stated by the source.

Assay: xn = mol fraction of the nth substance listed
Details: 100 kPa, Liquid; for viscosity: Concentric cylinders viscometry; for mass density: Vibrating tube method

CCOC(=O)CCC(=O)OCC [diethyl butanedioate] + CCCC(=O)OCC
Details	mass density [kg/m3]	viscosity [mPa·s]
288.15 K, x2 = 0.0999	1032.25 ± 0.83	2.784 ± 0.033
288.15 K, x2 = 0.2	1018.97 ± 0.83	2.407 ± 0.029
288.15 K, x2 = 0.3003	1004.96 ± 0.83	2.07 ± 0.025
288.15 K, x2 = 0.3999	990.34 ± 0.83	1.782 ± 0.022
288.15 K, x2 = 0.5	974.86 ± 0.83	1.537 ± 0.019
288.15 K, x2 = 0.5997	958.7 ± 0.83	1.334 ± 0.017
288.15 K, x2 = 0.7	941.56 ± 0.83	1.162 ± 0.015
288.15 K, x2 = 0.7999	923.5 ± 0.83	1.015 ± 0.013
288.15 K, x2 = 0.8999	904.39 ± 0.83	0.8744 ± 0.011
293.15 K, x2 = 0.0999	1027.04 ± 0.83	2.464 ± 0.029
293.15 K, x2 = 0.2	1013.76 ± 0.83	2.146 ± 0.026
293.15 K, x2 = 0.3003	999.74 ± 0.83	1.859 ± 0.023
293.15 K, x2 = 0.3999	985.12 ± 0.83	1.613 ± 0.02
293.15 K, x2 = 0.5	969.64 ± 0.83	1.402 ± 0.017
293.15 K, x2 = 0.5997	953.46 ± 0.83	1.225 ± 0.015
293.15 K, x2 = 0.7	936.32 ± 0.83	1.077 ± 0.014
293.15 K, x2 = 0.7999	918.25 ± 0.83	0.9435 ± 0.012
293.15 K, x2 = 0.8999	899.13 ± 0.83	0.8176 ± 0.011
298.15 K, x2 = 0.0999	1021.84 ± 0.83	2.202 ± 0.026
298.15 K, x2 = 0.2	1008.55 ± 0.83	1.932 ± 0.023
298.15 K, x2 = 0.3003	994.54 ± 0.83	1.684 ± 0.021
298.15 K, x2 = 0.3999	979.9 ± 0.83	1.471 ± 0.018
298.15 K, x2 = 0.5	964.41 ± 0.83	1.286 ± 0.016
298.15 K, x2 = 0.5997	948.23 ± 0.83	1.131 ± 0.014
298.15 K, x2 = 0.7	931.08 ± 0.83	1.002 ± 0.013
298.15 K, x2 = 0.7999	913 ± 0.83	0.8815 ± 0.012
298.15 K, x2 = 0.8999	893.87 ± 0.83	0.7679 ± 0.01
303.15 K, x2 = 0.0999	1016.65 ± 0.83	1.983 ± 0.024
303.15 K, x2 = 0.2	1003.35 ± 0.83	1.749 ± 0.021
303.15 K, x2 = 0.3003	989.33 ± 0.83	1.535 ± 0.019
303.15 K, x2 = 0.3999	974.68 ± 0.83	1.347 ± 0.017
303.15 K, x2 = 0.5	959.18 ± 0.83	1.185 ± 0.015
303.15 K, x2 = 0.5997	942.99 ± 0.83	1.048 ± 0.013
303.15 K, x2 = 0.7	925.83 ± 0.83	0.9351 ± 0.012
303.15 K, x2 = 0.7999	907.74 ± 0.83	0.8255 ± 0.011
303.15 K, x2 = 0.8999	888.59 ± 0.83	0.7228 ± 0.0098
308.15 K, x2 = 0.0999	1011.46 ± 0.83	1.796 ± 0.022
308.15 K, x2 = 0.2	998.15 ± 0.83	1.593 ± 0.02
308.15 K, x2 = 0.3003	984.12 ± 0.83	1.405 ± 0.017
308.15 K, x2 = 0.3999	969.46 ± 0.83	1.239 ± 0.016
308.15 K, x2 = 0.5	953.96 ± 0.83	1.096 ± 0.014
308.15 K, x2 = 0.5997	937.75 ± 0.83	0.9742 ± 0.013
308.15 K, x2 = 0.7	920.58 ± 0.83	0.8745 ± 0.011
308.15 K, x2 = 0.7999	902.47 ± 0.83	0.7752 ± 0.01
308.15 K, x2 = 0.8999	883.31 ± 0.83	0.6811 ± 0.0094
313.15 K, x2 = 0.0999	1006.27 ± 0.83	1.642 ± 0.02
313.15 K, x2 = 0.2	992.95 ± 0.83	1.465 ± 0.018
313.15 K, x2 = 0.3003	978.91 ± 0.83	1.297 ± 0.016
313.15 K, x2 = 0.3999	964.25 ± 0.83	1.149 ± 0.015
313.15 K, x2 = 0.5	948.72 ± 0.83	1.019 ± 0.013
313.15 K, x2 = 0.5997	932.5 ± 0.83	0.91 ± 0.012
313.15 K, x2 = 0.7	915.31 ± 0.83	0.8216 ± 0.011
313.15 K, x2 = 0.7999	897.18 ± 0.83	0.731 ± 0.0099
313.15 K, x2 = 0.8999	878 ± 0.83	0.6451 ± 0.009
318.15 K, x2 = 0.0999	1001.09 ± 0.83	1.5 ± 0.018
318.15 K, x2 = 0.2	987.76 ± 0.83	1.341 ± 0.017
318.15 K, x2 = 0.3003	973.7 ± 0.83	1.193 ± 0.015
318.15 K, x2 = 0.3999	959.02 ± 0.83	1.061 ± 0.014
318.15 K, x2 = 0.5	943.48 ± 0.83	0.9464 ± 0.012
318.15 K, x2 = 0.5997	927.25 ± 0.83	0.8492 ± 0.011
318.15 K, x2 = 0.7	910.04 ± 0.83	0.7706 ± 0.01
318.15 K, x2 = 0.7999	891.89 ± 0.83	0.6883 ± 0.0095
318.15 K, x2 = 0.8999	872.69 ± 0.83	0.6086 ± 0.0086
323.15 K, x2 = 0.0999	995.9 ± 0.83	1.384 ± 0.017
323.15 K, x2 = 0.2	982.56 ± 0.83	1.245 ± 0.016
323.15 K, x2 = 0.3003	968.49 ± 0.83	1.113 ± 0.014
323.15 K, x2 = 0.3999	953.79 ± 0.83	0.9951 ± 0.013
323.15 K, x2 = 0.5	938.24 ± 0.83	0.8916 ± 0.012
323.15 K, x2 = 0.5997	921.98 ± 0.83	0.7992 ± 0.011
323.15 K, x2 = 0.7	904.75 ± 0.83	0.7302 ± 0.0099
323.15 K, x2 = 0.7999	886.58 ± 0.83	0.6542 ± 0.0091
323.15 K, x2 = 0.8999	867.36 ± 0.83	0.5785 ± 0.0083
